From PMC8279981, “A first-in-human, phase 1 study of the NEDD8 activating enzyme E1 inhibitor TAS4464 in patients with advanced solid tumors” (Investigational New Drugs, 2021)

Legend:
[1] = system: patients with advanced or metastatic solid tumors; assay: Phase 1 study: dose-limiting toxicities and maximum tolerated dose; assay type: in vivo
Description: The highest non-severely toxic dose was derived from a dog toxicology study and was used to calculate a clinical starting dose of 10 mg/m^2, which corresponds to one-sixth of the human-equivalent dose. The maximum tolerated dose (MTD) of TAS4464 was investigated using an accelerated titration design. Initially, the starting TAS4464 dose was 10 mg/m^2 and was followed by an initial accelerated stage (i.e., weekly dosing phase) with 100% dose-step increments (level 1: 10 mg/m^2, level 2: 20 mg/m^2, level 3: 40 mg/m^2, and level 4: 56 mg/m^2). The 100% dose-step increments continued until the occurrence of a grade ≥ 2 drug-related toxicity within Cycle 1; dose-limiting toxicity (DLT) within Cycle 1; the next dose level reaching 60 mg/m^2; or any safety concerns. Thereafter, 40% increments were employed in the standard stage.
In the standard stage, three to six patients were to be enrolled, and the dose was escalated in 40% increments if none of the first three patients experienced a DLT. If one patient experienced a DLT, three additional patients were to be enrolled at the same dose level. If two of three or two of six patients experienced a DLT, the dose escalation was to be ceased. […] Additionally, DLT criteria regarding abnormal liver function and discontinuation criteria for study drug administration were added. The TAS4464 dose level for Day 1 of Cycle 1 was then set to 40 mg/m^2 (level 3).
The primary objective of the study was to investigate DLTs. Treatment-related adverse events (AEs) during the lead-in period and Cycle 1 were included in the assessment of DLT, which was defined as follows: 1) grade 4 neutropenia lasting >7 days or neutropenia requiring treatment; 2) grade 4 thrombocytopenia or thrombocytopenia requiring blood transfusion; 3) febrile neutropenia; 4) grade ≥ 3 nausea, vomiting, or diarrhea lasting >48 h and uncontrolled by treatment; 5) grade ≥ 3 aspartate aminotransferase (AST) increase or alanine aminotransferase (ALT) increase lasting ≥3 days; or 6) any other grade ≥ 3 non-hematologic toxicity.

[2] = system: advanced or metastatic solid tumors; assay: Phase 1 study: clinical response (RECIST v1.1), PFS; assay type: in vivo, human
Excerpt: Secondary objectives included assessment of AEs, treatment-related AEs, objective response rate (ORR), disease control rate (DCR), progression-free survival (PFS), and PK, pharmacodynamic, and pharmacogenomic (PGx) parameters with TAS4464 administration. The National Cancer Institute Common Terminology Criteria for Adverse Events (NCI CTCAE) v4.03 [17] was used to assess the severity of AEs. The Medical Dictionary for Regulatory Activities (MedDRA) version 22.1 was used to classify AEs. RECIST v1.1 [16] was used to determine clinical response, and all computed tomography images were assessed by the physician at the study site after completion of the imaging procedure. The ORR was defined as the percentage of patients with the best overall response of complete response (CR) or partial response (PR). The DCR was the percentage of patients with a best overall response of CR, PR, stable disease (SD), or non-CR/non-progressive disease (PD). PFS was defined as the time from the date of enrollment until the date of investigator-assessed radiological disease progression or death due to any cause, whichever occurred first. The analysis populations included in the study are summarized in the Supplementary Appendix. DLTs were recorded by incidence and 95% confidence intervals (CI). Median PFS and 95% CIs were calculated using Kaplan–Meier methodology. Best overall response was tabulated, and the ORR and DCR with 95% CIs were calculated by dose level. PK parameters were evaluated using non-compartmental methods. For the pharmacodynamic parameter of cullin-NEDD8 in PBMC, summary statistics and a scatter plot of the percentage change from baseline were produced. Missing data were not imputed. […] SAS software v9.4 (SAS Institute Inc., Cary NC, USA) was used for all statistical processing.

NAE = conditions: compared with MLN4924; cited from earlier work
tumor cell lines = conditions: cited from earlier work
[3] = system: nuclear factor κB (NFκB) activation; set-up: method as in PMID 31583781; conditions: multiple myeloma models; cited from earlier work
[4] = weekly dosing Level 1 (10 mg/m^2), n = 1
[5] = weekly dosing Level 2 (20 mg/m^2), n = 1
[6] = weekly dosing Level 3 (40 mg/m^2), n = 3
[7] = weekly dosing Level 4 (56 mg/m^2), n = 5
[8] = weekly dosing with lead-in Level 3 (20 → 40 mg/m^2), n = 3
[9] = weekly dosing with lead-in Level 4 (20 → 56 mg/m^2), n = 3
[10] = weekly dosing with lead-in Total, n = 6

CCOc1cccc(F)c1C#Cc1cn([C@@H]2O[C@H](CNS(N)(=O)=O)[C@@H](O)[C@H]2O)c2ncnc(N)c12 [TAS4464]
MTD ([1]; weekly dosing regimen): could not be determined | DLT incidence (grade 3 ALT increased and grade 3 AST increased) ([1]; weekly dosing with lead-in period, dose level 4 (56 mg/m^2)): 1/5 | DLT incidence (grade 4 ALT increased) ([1]; weekly dosing, dose level 4 (56 mg/m^2), DLT-evaluable population): 1/5 and one of five patients | Disease control rate (CR + PR + SD + non-CR/non-PD) ([2]; Total, N = 16): 5 (31.3) n (%) | Not evaluable (best overall response) ([2]; Total, N = 16): 1 (6.3) n (%) | PD (best overall response) ([2]; Total, N = 16): 10 (62.5) n (%) | Response rate (CR + PR) ([2]; Total, N = 16): 0 n (%) | Disease control rate (CR + PR + SD + non-CR/non-PD) [2, 4]: 1 (100.0) n (%) | Not evaluable (best overall response) [2, 4]: 0 n (%) | PD (best overall response) [2, 4]: 0 n (%) | Response rate (CR + PR) [2, 4]: 0 n (%) | Disease control rate (CR + PR + SD + non-CR/non-PD) [2, 5]: 1 (100.0) n (%) | Not evaluable (best overall response) [2, 5]: 0 n (%) | PD (best overall response) [2, 5]: 0 n (%) | Response rate (CR + PR) [2, 5]: 0 n (%) | Disease control rate (CR + PR + SD + non-CR/non-PD) [2, 6]: 1 (33.3) n (%) | Not evaluable (best overall response) [2, 6]: 0 n (%) | PD (best overall response) [2, 6]: 2 (66.7) n (%) | Response rate (CR + PR) [2, 6]: 0 n (%) | Disease control rate (CR + PR + SD + non-CR/non-PD) [2, 7]: 2 (40.0) n (%) | Not evaluable (best overall response) [2, 7]: 0 n (%) | PD (best overall response) [2, 7]: 3 (60.0) n (%) | Response rate (CR + PR) [2, 7]: 0 n (%) | Disease control rate (CR + PR + SD + non-CR/non-PD) ([2]; weekly dosing Total, N = 10): 5 (50.0) n (%) | Not evaluable (best overall response) ([2]; weekly dosing Total, N = 10): 0 n (%) | PD (best overall response) ([2]; weekly dosing Total, N = 10): 5 (50.0) n (%) | Response rate (CR + PR) ([2]; weekly dosing Total, N = 10): 0 n (%) | best overall response ([2]; weekly dosing cohort): no patients showed a CR or PR | DCR ([2]; weekly dosing cohort, 10 patients, 95% CI 18.7–81.3): 50.0% | median PFS ([2]; weekly dosing cohort, 95% CI 1.0–7.0): 3.7 months | Disease control rate (CR + PR + SD + non-CR/non-PD) [2, 8]: 0 n (%) | Not evaluable (best overall response) [2, 8]: 0 n (%) | PD (best overall response) [2, 8]: 3 (100.0) n (%) | Response rate (CR + PR) [2, 8]: 0 n (%) | Disease control rate (CR + PR + SD + non-CR/non-PD) [2, 9]: 0 n (%) | Not evaluable (best overall response) [2, 9]: 1 (33.3) n (%) | PD (best overall response) [2, 9]: 2 (66.7) n (%) | Response rate (CR + PR) [2, 9]: 0 n (%) | Disease control rate (CR + PR + SD + non-CR/non-PD) [2, 10]: 0 n (%) | Not evaluable (best overall response) [2, 10]: 1 (16.7) n (%) | PD (best overall response) [2, 10]: 5 (83.3) n (%) | Response rate (CR + PR) [2, 10]: 0 n (%) | best overall response ([2]; weekly dosing with lead-in period cohort): no patients showed CR, PR, or SD | median PFS ([2]; weekly dosing with lead-in period cohort, 95% CI 0.5–2.9): 1.5 months | inhibitory effects in enzyme assays (NAE): greater inhibitory effects than MLN4924 | inhibitory effects in cells (tumor cell lines; compared with MLN4924): greater inhibitory effects than MLN4924 | time course of antiproliferative effects (tumor cell lines; dose- and time-dependent increase): plateauing after 24 h | mechanism of antitumor activity [3]: inhibition of nuclear factor κB (NFκB) activation
